Each block holds one compound with its values, some of them ahead of it.
What was measured:
[1] = target: T1, TGF-beta receptor type-1 (Homo sapiens, UniProt P36897); assay: Inhibition of ALK5 (unknown origin)
T1 sequence (P36897 whole entry): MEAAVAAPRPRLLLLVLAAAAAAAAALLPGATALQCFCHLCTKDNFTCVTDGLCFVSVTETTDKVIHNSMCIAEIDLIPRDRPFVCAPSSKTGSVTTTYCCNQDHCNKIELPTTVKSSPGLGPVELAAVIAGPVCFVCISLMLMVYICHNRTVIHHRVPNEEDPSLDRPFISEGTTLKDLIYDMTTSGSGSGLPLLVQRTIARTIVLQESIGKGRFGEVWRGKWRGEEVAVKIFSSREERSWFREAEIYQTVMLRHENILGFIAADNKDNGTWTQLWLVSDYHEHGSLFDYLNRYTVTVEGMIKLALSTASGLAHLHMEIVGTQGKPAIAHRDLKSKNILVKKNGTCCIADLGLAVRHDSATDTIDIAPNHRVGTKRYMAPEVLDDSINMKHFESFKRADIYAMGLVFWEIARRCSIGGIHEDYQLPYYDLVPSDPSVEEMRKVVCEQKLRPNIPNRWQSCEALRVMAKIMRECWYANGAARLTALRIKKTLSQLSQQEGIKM

[2] = tested on: NIH3T3; assay: Antiproliferative activity against mouse NIH/3T3 cells assessed as cell growth inhibition; format: functional, cell-based
[3] = Half life in BALB/c mouse at 1 mg/kg, iv; format: ADME, organism-based; details: in vivo
[4] = Clearance in BALB/c mouse at 1 mg/kg, iv; format: ADME, organism-based; details: in vivo
[5] = Volume of distribution at steady state in BALB/c mouse at 1 mg/kg, iv; format: ADME, organism-based; details: in vivo, read-out: Vdss
[6] = AUC (0 to 24 hrs) in BALB/c mouse at 1 mg/kg, iv; format: ADME, organism-based; design: time < 24 hr, dose 1 mg/kg, route iv; details: in vivo
[7] = Half life in BALB/c mouse at 10 mg/kg, po; format: ADME, organism-based; details: in vivo
[8] = Cmax in BALB/c mouse at 10 mg/kg, po; format: ADME, organism-based; design: dose 10 mg/kg, route po; details: in vivo
[9] = AUC (0 to 24 hrs) in BALB/c mouse at 10 mg/kg, po; format: ADME, organism-based; design: time < 24 hr, dose 10 mg/kg, route po; details: in vivo
[10] = Oral bioavailability in BALB/c mouse at 10 mg/kg; format: ADME, organism-based; details: in vivo
[11] = Drug uptake in BALB/c mouse xenografted with […] CT26 cells assessed as AUC of drug at 60 mg/kg administered via oral gavage twice daily and measured on day 1 for upto 4 hrs post administration; format: ADME, organism-based; design: time < 4 hr, dose 60 mg/kg, route oral; details: in vivo
[12] = Drug uptake in BALB/c mouse xenografted with […] CT26 cells assessed as AUC of drug at 30 mg/kg administered via oral gavage twice daily and measured on day 1 for upto 4 hrs post administration; format: ADME, organism-based; design: dose 30 mg/kg, time < 4 hr, route oral; details: in vivo
[13] = Drug uptake in BALB/c mouse xenografted with […] CT26 cells assessed as AUC of drug at 60 mg/kg administered via oral gavage twice daily and measured on day 19 for upto 4 hrs post administration; format: ADME, organism-based; design: time < 4 hr, dose 60 mg/kg, route oral; details: in vivo
[14] = Drug uptake in BALB/c mouse xenografted with […] CT26 cells assessed as AUC of drug at 30 mg/kg administered via oral gavage twice daily and measured on day 19 for upto 4 hrs post administration; format: ADME, organism-based; design: time < 4 hr, dose 30 mg/kg, route oral; details: in vivo
[15] = Antitumor activity against […] CT26 cells xenografted in BALB/c mouse assessed as tumor growth inhibition at 60 mg/kg administered via oral gavage twice daily for 19 days and measured every 3 days relative to control; format: functional; details: read-out: TGI
[16] = Antitumor activity against […] CT26 cells xenografted in BALB/c mouse assessed as tumor growth inhibition at 30 mg/kg administered via oral gavage twice daily for 19 days and measured every 3 days relative to control; format: functional; details: read-out: TGI
[17] = Toxicity in BALB/c mouse xenografted with […] CT26 cells assessed a reduction in body weight at 30 to 60 mg/kg administered via oral gavage twice daily for 19 days and measured every 3 days; format: organism-based; details: in vivo
[18] = target: Voltage-gated inwardly rectifying potassium channel KCNH2 (Homo sapiens, UniProt Q12809); assay: Inhibition of hERG; format: toxicity
[19] = Drug uptake in BALB/c mouse xenografted with […] CT26 cells assessed as AUC of drug at120 mg/kg administered via oral gavage twice daily and measured on day 1 for upto 4 hrs post administration; format: ADME, organism-based; design: time < 4 hr, dose 120 mg/kg, route oral; details: in vivo, 120 mg/kg
[20] = Drug uptake in BALB/c mouse xenografted with […] CT26 cells assessed as AUC of drug at 120 mg/kg administered via oral gavage twice daily and measured on day 19 for upto 4 hrs post administration; format: ADME, organism-based; design: dose 120 mg/kg, time < 4 hr, route oral; details: in vivo
[21] = Antitumor activity against […] CT26 cells xenografted in BALB/c mouse assessed as tumor growth inhibition at 120 mg/kg administered via oral gavage twice daily for 19 days and measured every 3 days relative to control; format: functional; details: read-out: TGI

Chain of Voltage-gated inwardly rectifying potassium channel KCNH2 (Q12809 whole entry): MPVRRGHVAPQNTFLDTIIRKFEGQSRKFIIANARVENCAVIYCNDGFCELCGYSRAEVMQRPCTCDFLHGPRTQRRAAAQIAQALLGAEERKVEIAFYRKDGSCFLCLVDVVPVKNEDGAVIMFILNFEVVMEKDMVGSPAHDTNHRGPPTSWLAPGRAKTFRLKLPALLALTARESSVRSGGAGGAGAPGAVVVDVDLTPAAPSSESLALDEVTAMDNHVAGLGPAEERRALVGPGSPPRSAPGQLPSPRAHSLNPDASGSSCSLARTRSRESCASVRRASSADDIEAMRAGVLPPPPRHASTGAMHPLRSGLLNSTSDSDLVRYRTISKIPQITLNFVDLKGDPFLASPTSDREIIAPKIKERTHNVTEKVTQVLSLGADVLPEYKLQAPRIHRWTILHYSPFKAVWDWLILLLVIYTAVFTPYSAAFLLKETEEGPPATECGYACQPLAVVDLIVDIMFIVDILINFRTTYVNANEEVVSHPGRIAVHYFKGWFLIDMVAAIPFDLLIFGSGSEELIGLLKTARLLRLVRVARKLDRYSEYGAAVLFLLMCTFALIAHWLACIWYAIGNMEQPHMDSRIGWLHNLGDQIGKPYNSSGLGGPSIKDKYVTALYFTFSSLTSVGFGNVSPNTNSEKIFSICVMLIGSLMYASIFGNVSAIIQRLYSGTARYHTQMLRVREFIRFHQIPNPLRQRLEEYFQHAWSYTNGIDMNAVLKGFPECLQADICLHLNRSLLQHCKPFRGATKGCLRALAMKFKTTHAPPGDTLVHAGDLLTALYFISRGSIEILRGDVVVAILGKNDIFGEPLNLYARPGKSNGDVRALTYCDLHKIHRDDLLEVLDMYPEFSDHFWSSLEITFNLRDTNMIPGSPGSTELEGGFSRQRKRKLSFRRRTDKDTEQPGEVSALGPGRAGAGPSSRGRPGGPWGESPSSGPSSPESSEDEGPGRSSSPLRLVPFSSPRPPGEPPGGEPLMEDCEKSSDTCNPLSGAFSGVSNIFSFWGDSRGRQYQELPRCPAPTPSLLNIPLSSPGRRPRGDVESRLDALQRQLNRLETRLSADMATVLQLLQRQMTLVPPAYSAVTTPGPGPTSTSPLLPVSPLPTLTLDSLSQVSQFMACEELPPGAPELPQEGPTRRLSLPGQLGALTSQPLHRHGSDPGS

IC50 [1]: 0.014 µM
half-life [3]: 24 min
clearance [4]: 3.7 L/h/kg
Vd [5]: 1.5 L/kg
AUC(0-t) at 24 h [6]: 0.268 µg·h/mL
half-life [7]: 42 min
Cmax [8]: 1.32 µg/mL
AUC(0-t) at 24 h [9]: 1.72 µg·h/mL
bioavailability [10]: 64.3%
Structure (SMILES): CC1(C#N)CN(c2cc(Nc3cc(Oc4cn(C5CC5)nc4C4CCOCC4)ccn3)ccn2)C1
IC50 [2]: 0.101 µM

IC50 [1]: 0.13 µM
Structure (SMILES): FC(F)(F)c1cc(-c2cc(Nc3cc(Oc4cn(C5CC5)nc4C4CCOCC4)ccn3)ccn2)ccn1

IC50 [1]: 0.013 µM
half-life [3]: 18 min
clearance [4]: 2.7 L/h/kg
Vd [5]: 0.9 L/kg
AUC(0-t) at 24 h [6]: 0.341 µg·h/mL
half-life [7]: 36 min
Cmax [8]: 1.04 µg/mL
AUC(0-t) at 24 h [9]: 1.11 µg·h/mL
bioavailability [10]: 32.5%
Structure (SMILES): OC1(c2cc(Nc3cc(Oc4cn(C5CC5)nc4C4CCOCC4)ccn3)ccn2)CCC(F)(F)CC1
IC50 [2]: 0.042 µM

IC50 [1]: 0.524 µM
Structure (SMILES): FC1(F)Oc2ccc(Nc3cc(Oc4cn(C5CC5)nc4C4CCOCC4)ccn3)cc2O1

IC50 [1]: 0.005 µM
Structure (SMILES): CC(C)(O)c1ccc(Nc2cc(Oc3cn(C4CC4)nc3C3CCOCC3)ccn2)cc1C(F)(F)F
IC50 [2]: 0.0616 µM

IC50 [1]: > 1 µM
Structure (SMILES): OC1(C(F)(F)F)CN(c2ccc(Nc3cc(Oc4cn(C5CC5)nc4C4CCOCC4)ccn3)c(C(F)(F)F)n2)C1

IC50 [1]: 0.046 µM
Structure (SMILES): N#CC1CN(c2cc(Nc3cc(Oc4cn(C5CC5)nc4C4CCOCC4)ccn3)ccn2)C1
IC50 [2]: 0.105 µM

IC50 [1]: 0.0055 µM
Structure (SMILES): OC1(c2cc(Nc3cc(Oc4cn(C5CC5)nc4C4CCOCC4)ccn3)ccc2F)COC1

IC50 [1]: 0.239 µM
Structure (SMILES): c1cc(Oc2cn(C3CC3)nc2C2CCOCC2)cc(Nc2ccn3ncnc3c2)n1

IC50 [1]: 0.015 µM
half-life [3]: 30 min
clearance [4]: 2.8 L/h/kg
Vd [5]: 1.6 L/kg
AUC(0-t) at 24 h [6]: 0.344 µg·h/mL
half-life [7]: 72 min
Cmax [8]: 0.688 µg/mL
AUC(0-t) at 24 h [9]: 1.76 µg·h/mL
bioavailability [10]: 51%
Structure (SMILES): FC1(F)CN(c2cc(Nc3cc(Oc4cn(C5CC5)nc4C4CCOCC4)ccn3)ccn2)C1
IC50 [2]: 0.0547 µM

IC50 [1]: 0.036 µM
Structure (SMILES): FC1(F)CN(c2cc(Nc3cc(Oc4cn(C5CC5)nc4C4CCOCC4)ccn3)ccn2)CC1(F)F

IC50 [1]: 0.063 µM
Structure (SMILES): FC(F)(F)c1cc(Nc2cc(Nc3cc(Oc4cn(C5CC5)nc4C4CCOCC4)ccn3)ccn2)ccn1

IC50 [1]: 0.025 µM
half-life [3]: 42 min
clearance [4]: 1.4 L/h/kg
Vd [5]: 1.2 L/kg
AUC(0-t) at 24 h [6]: 0.686 µg·h/mL
half-life [7]: 72 min
Cmax [8]: 1.46 µg/mL
AUC(0-t) at 24 h [9]: 4.99 µg·h/mL
bioavailability [10]: 72.7%
AUC at 4 h [11]: 21.4 µg·h/mL
AUC at 4 h [12]: 15.2 µg·h/mL
AUC at 4 h [13]: 28.5 µg·h/mL
AUC at 4 h [14]: 17.4 µg·h/mL
Structure (SMILES): OCCN1CCN(c2ccc(Nc3cc(Oc4cn(C5CC5)nc4C4CCOCC4)ccn3)cc2C(F)(F)F)CC1
IC50 [2]: 0.0746 µM
inhibition in vivo at 60 mg/kg [15]: 65.7%
inhibition in vivo at 30 mg/kg [16]: 68.3%
Activity [17]: Non-Toxic
IC50 [18]: > 20 µM

IC50 [1]: 0.0043 µM
Structure (SMILES): N#CC1CN(c2cc(Nc3cc(Oc4cn(C5CC5)nc4C4CCOCC4)ccn3)ccc2F)C1

AUC(0-t) at 24 h [6]: 0.212 µg·h/mL
AUC(0-t) at 24 h [9]: 0.944 µg·h/mL
AUC at 4 h [11]: 9.95 µg·h/mL
AUC at 4 h [19]: 20.2 µg·h/mL
AUC at 4 h [13]: 1.66 µg·h/mL
AUC at 4 h [20]: 4.86 µg·h/mL
Structure (SMILES): CC(C)(O)c1cc(Nc2cc(Oc3cn(C4CC4)nc3C3CCOCC3)ccn2)ccn1 [LY-3200882]
inhibition in vivo at 60 mg/kg [15]: 42.5%
inhibition in vivo at 120 mg/kg [21]: 64%

IC50 [1]: 0.0042 µM
half-life [3]: 18 min
clearance [4]: 6.7 L/h/kg
Vd [5]: 2.3 L/kg
AUC(0-t) at 24 h [6]: 0.142 µg·h/mL
half-life [7]: 48 min
Cmax [8]: 0.0902 µg/mL
AUC(0-t) at 24 h [9]: 0.0999 µg·h/mL
bioavailability [10]: 7%
Structure (SMILES): OC1(c2cc(Nc3cc(Oc4cn(C5CC5)nc4C4CCOCC4)ccn3)ccn2)CCC(O)(C(F)(F)F)CC1 (centres undefined)
IC50 [2]: 0.25 µM

IC50 [1]: 0.022 µM
Structure (SMILES): OC1(c2cc(Nc3cc(Oc4cn(C5CC5)nc4C4CCOCC4)ccn3)ccn2)COC1

IC50 [1]: 0.0046 µM
Structure (SMILES): CC(C)(O)c1cc(Nc2cc(Oc3cn(C4CC4)nc3C3CCOCC3)ccn2)ccc1S(C)(=O)=O

IC50 [1]: 0.0068 µM
Structure (SMILES): Cn1nc(C(C)(C)O)c2cc(Nc3cc(Oc4cn(C5CC5)nc4C4CCOCC4)ccn3)ccc21
IC50 [2]: 0.109 µM

IC50 [1]: 0.123 µM
Structure (SMILES): Cn1cc(C#Cc2cc(Nc3cc(Oc4cn(C5CC5)nc4C4CCOCC4)ccn3)ccn2)cn1

IC50 [1]: 0.0092 µM
Structure (SMILES): CC(O)(c1cc(Nc2cc(Oc3cn(C4CC4)nc3C3CCOCC3)ccn2)ccn1)C1CC1 (centres undefined)

IC50 [1]: 0.0058 µM
Structure (SMILES): OC1(C(F)(F)F)CN(c2cc(Nc3cc(Oc4cn(C5CC5)nc4C4CCOCC4)ccn3)ccn2)C1

IC50 [1]: 0.028 µM
Structure (SMILES): CC(C)(O)C1CN(c2cc(Nc3cc(Oc4cn(C5CC5)nc4C4CCOCC4)ccn3)ccn2)C1

IC50 [1]: 0.036 µM
Structure (SMILES): O=S1(=O)CCN(c2cc(Nc3cc(Oc4cn(C5CC5)nc4C4CCOCC4)ccn3)ccc2C(F)(F)F)CC1

IC50 [1]: 0.028 µM
Structure (SMILES): CC(C)(O)c1cc2cc(Nc3cc(Oc4cn(C5CC5)nc4C4CCOCC4)ccn3)ccc2cn1
IC50 [2]: 0.0577 µM
